The experiment concerns the target T1, Beta-1,4-galactosyltransferase 1 (Bos taurus, UniProt P08037).
T1 sequence (P08037 whole entry): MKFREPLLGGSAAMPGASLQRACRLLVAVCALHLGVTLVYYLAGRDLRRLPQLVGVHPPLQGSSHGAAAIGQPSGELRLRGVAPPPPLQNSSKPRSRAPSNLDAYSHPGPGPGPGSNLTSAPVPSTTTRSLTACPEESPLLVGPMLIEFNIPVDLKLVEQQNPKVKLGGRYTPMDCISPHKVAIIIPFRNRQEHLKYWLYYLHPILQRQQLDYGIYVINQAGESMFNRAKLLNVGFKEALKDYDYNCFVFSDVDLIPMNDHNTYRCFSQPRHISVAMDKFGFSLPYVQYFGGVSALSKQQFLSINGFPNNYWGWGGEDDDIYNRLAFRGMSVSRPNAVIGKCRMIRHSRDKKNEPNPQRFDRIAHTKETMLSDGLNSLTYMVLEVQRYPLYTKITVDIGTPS
Put plainly: Inhibition constant of compound was tested against Beta-galactosyltransferase from bovine milk.

Each structure is given as a SMILES string.

As to `O=P(O)(O)CC1=CC(O)C(O)C(CO)O1` (stereo not given), affinity was put at a Ki of 1430 µM.
As for `O=c1ccn(C2O[C@H](COP(=O)(O)OP(=O)(O)C3OC(O)C(O)C(O)C3O)[C@@H](O)[C@H]2O)c(=O)[nH]1` (stereo not given in full), the figure is 165 µM.
As for `O=c1ccn(C2O[C@H](COP(=O)(O)CP(=O)(O)OC3OC(O)C(O)C(O)C3O)[C@@H](O)[C@H]2O)c(=O)[nH]1` (stereo not given in full), the figure is 96.9 µM.
`O=c1ccn(C2O[C@H](COP(=O)(O)OP(=O)(O)CC3=CC(O)C(O)C(CO)O3)[C@@H](O)[C@H]2O)c(=O)[nH]1` (stereo not given in full): the Ki – broadly, a measure of affinity in units of concentration, obtained from inhibition or displacement – turned out to be 62 µM.
`O=c1ccn([C@@H]2O[C@H](COP(=O)(O)OP(=O)(O)OP(=O)(O)O)[C@@H](O)[C@H]2O)c(=O)[nH]1` [URIDINE TRIPHOSPHATE] yielded a Ki of 128 µM. This Ki lies about 2.1-fold higher than the previous one.

Values taken from ChEMBL document CHEMBL1150445, “A new galactosyl transferase inhibitor” (Bioorg Med Chem Lett, 1993).
